Laboratory results reported in article PMC5048153 (Scientific Reports, 2016).

Key:
H9C2 cells = test: Cytotoxicity on H9C2 cells (MTT); format: cell-based; details: Rattus norvegicus, 48 h
Method: (§1) Human normal hepatic L02 cells, human embryonic kidney cell line 293 cells (HEK293) and Rattus myoblast cell line H9C2 cells were respectively seeded in 96-well plates at a density of 4 × 10^3 cells per well and cultured in the 1640 or DMEM medium, with the supplement of 10% fetal bovine serum, penicillin (100 unit/ml), streptomycin (100 μg/ml) in a humidified incubator with 5% CO2 for 24 h. After adherence, L02, HEK293 and H9C2 cells were exposed to different compounds for another 48 h. The cytotoxicities of the compounds were evaluated by MTT method.

[1] = system: corticosterone-injured PC12 cells; test: Intracellular calcium ion concentration analysis (Fura-2 AM); format: cell-based, rat; details: 200 µM corticosterone and 5 µM drug
Method: The detailed procedures were performed according to the reported literatures. In brief, calcium ion concentration was measured by Fura-2 AM (Thermo Scientific). PC12 cells were treated with compound 6a-1 for 48 hours. Then cells were detached with 0.25% trypsin and centrifuged at 1000 r/min for 5 minutes. The supernatant was removed and the cells were stained with Fura-2 AM according to the manufacturer’s instructions. Fluorescence intensity of labeled cells was photographed for 25 random sights each group using Thermo Scientific Array Scan Infinity.

SD rats [2] = test: Open field locomotor activity; format: in vivo, rat; details: ig. 32 mg/kg/day, days 2–15, vs untreated rats
Method: The detailed procedures were performed according to our previous studies. In brief, each SD rat was placed at the center of the open field (50 × 50 cm^2 chamber, 50-cm-high walls, with a 25 cm^2 area in the middle of floor defined as the central square) for 6 min in a quiet room. The animals were gently placed in the center of the platform and were allowed to explore the surroundings. A camera was installed above the center of the field. Immediately after a rat was placed at the center in the open field, the movements and position of the animals were recorded and registered automatically by computerized system. Next test was performed after cleaning the chamber. The traveled tracks of rats were recorded for 6 minutes and the videos of the last 4 minutes were analyzed also by Xeye Animal behavior analysis system.

[3] = system: corticosterone injured PC12 cells; test: Real-time PCR BDNF mRNA level; format: cell-based, rat; details: 200 µM corticosterone and 5 µM drug
SD rats [4] = test: Forced swim test; format: in vivo, rat; details: ig. 32 mg/kg/day, days 2–15
Method: The detailed procedures were performed according to our previous studies. Briefly, each SD rat was placed in a vertical Plexiglas cylinder (height 50 cm; diameter 20 cm) containing 18 cm height of water at 25 ± 2 °C and was forced to swim individually for 15 min on1st day. From 2nd day to 15th day, the rats were intragastrically administered compound 6a-1 or control drugs at dosage of 32 mg/kg/day. On the 2nd day and 15th day, 30 minutes after drug treatment, each rat was placed again into water and forced to swim for 6 min. The rat behavior was recorded by a video camera placed directly facing cylinders. The duration of immobility during the last 4 minutes was analyzed by Xeye Animal behavior analysis system (Xeye Aba V3.2). The rat was considered as immobile when its moving speed was less than 20 mm/s. The dosage of is 32 mg/kg every day. The water in the cylinder was changed each trial. After each exposure, animals were partially dried with a towel and returned to their home cages. All tests were performed in a quiet room.

5-HT2C receptor = biological target: T1, 5-HT2C receptor (Homo sapiens, UniProt P28335); test: FLIPR assay for 5-HT2C antagonism; format: cell-based
T1 sequence (P28335 33-458): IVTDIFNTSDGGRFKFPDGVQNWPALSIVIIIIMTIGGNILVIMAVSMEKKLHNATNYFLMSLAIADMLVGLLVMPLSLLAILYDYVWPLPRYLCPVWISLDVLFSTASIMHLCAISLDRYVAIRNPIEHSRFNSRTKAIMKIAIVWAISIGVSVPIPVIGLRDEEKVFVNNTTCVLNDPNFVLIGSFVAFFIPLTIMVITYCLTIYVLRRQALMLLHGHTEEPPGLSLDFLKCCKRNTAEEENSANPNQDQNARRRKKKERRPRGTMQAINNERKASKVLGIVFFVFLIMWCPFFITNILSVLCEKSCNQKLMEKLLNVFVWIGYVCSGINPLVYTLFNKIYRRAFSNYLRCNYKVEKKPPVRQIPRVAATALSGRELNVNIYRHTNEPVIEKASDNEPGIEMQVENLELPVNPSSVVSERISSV
Method: Seed cells at the density of 10 K cell/well, 37 °C, 5% CO2 incubate for 16–24 hours, then loading cells with 30 ul of Calcium 5 and 37 °C, 5% CO2 incubate for 1 hour. After transfer compound to compound plate with 30 ul Assay Buffer by Echo, add 15 ul/well of compound, incubate for 10 mins.

[5] = PAMPA-BBB literature value ref 38; cited from earlier work
[6] = system: corticosterone-injured PC12 cells; test: Protective effects on corticosterone-injured PC12 cells (MTT); format: cell-based, rat; parameters: key to PR (protection rate), Table S1: compounds did not shown protection effects on corticosterone-injured PC12 cells; details: 1.25µM, 24 h after treatment
Method: PC12 cells were purchased from American Type Culture Collection and were maintained in DMEM medium supplemented with penicillin (100 unit/ml), streptomycin (100 μg/ml), 5% fetal bovine serum (FBS), and 10% horse serum at 37 °C in humidified atmosphere with 5% CO2. The detailed procedures were performed referring to the reported literatures. Briefly, PC12 cells of logarithmic growth phase were collected, re-suspended and then seeded at a density of 1 × 10^5 cells per well in 96-well plates and cultured in the DMEM medium with 5% horse serum, 10% FBSfor 24 h.
After incubation with compounds, 20 μl of 5 mg/ml MTT solution was added to each well and cultured at 37 °C for 2 h–4 h. Then, the culture medium was removed, and 150 μl dimethyl sulfoxide(DMSO) was added to each well for 15 min at room temperature. The absorbance of each well was measured at 570 nm using a microplate reader. The protective rates (PR) were calculated according to equation (1).

HEK293 cells = test: Cytotoxicity on HEK293 cells (MTT); format: cell-based, human; details: 100μM, after treatment
Method: as §1, with “After adherence, L02, HEK293 and H9C2 cells were exposed to different compounds for another 48 h.” left out

L02 cells = test: Cytotoxicity on L02 cells (MTT); format: cell-based, human; details: 100μM, after treatment
Method: as §1, with “After adherence, L02, HEK293 and H9C2 cells were exposed to different compounds for another 48 h.” left out

## COc1cccc2c1C(=O)c1c(O)c3c(c(O)c1C2=O)C[C@@](O)(C(=O)CO)C[C@@H]3O[C@H]1C[C@H](N)[C@H](O)[C@H](C)O1 [Adriamycin]
H9C2 cells
  IC50: 160 ± 20 nM

## CNCCC(Oc1ccc(C(F)(F)F)cc1)c1ccccc1 (stereo not shown) [Fluoxetine]
[1]
  fluorescence intensity of free intracellular calcium ion: weaker fluorescence intensity than corticosterone-injured PC12 cells
SD rats [2]
  improved travelled distance: 69.8%
[3]
  BDNF mRNA level increase compared with corticosterone-injured group: 32.1%
SD rats [4]
  mean immobility time reduced compared to the model group: 50.7%

## CC[C@@H](CO)NC(=O)[C@@H]1C=C2c3cccc4c3c(cn4C)C[C@H]2N(C)C1 [Methysergide]
5-HT2C receptor
  IC50: 25 nM
5-HT2C receptor; read-out: Inhibition 5-HT2C
  inhibition at 100 µM: 101%

## O=C1Nc2ccc(Cl)cc2C(c2ccccc2)=NC1O (stereo not shown) [Oxazepam]
[5]
  Pe, Lit.: 10 *10^−6 cm/s

## CN1C(C(=O)Nc2ccccn2)=C(O)c2ccccc2S1(=O)=O [Piroxicam]
[5]
  Pe, Lit.: 2.5 *10^−6 cm/s

## Cn1c(=O)c2[nH]cnc2n(C)c1=O [Theophylline]
[5]
  Pe, Lit.: 0.12 *10^−6 cm/s

## N-(2-(7-Methoxy-3,4-dihydroisoquinolin-1-yl)ethyl)-4-methylbenzamide oxalate [6a-32]
[6]
  PR (protection rate), Table S1: -
HEK293 cells
  IR (inhibitory rate) HEK293: 54.8%
L02 cells
  IR (inhibitory rate) L02: 43.2%
